What was measured:
[1] = system: Sprague-Dawley rats; test: Echocardiography 3 weeks after co-transfection of rOSF-2 plasmid and antisense/sense/scramble nucleotides into the rat heart; assay type: in vivo; conditions: 3 weeks post transfection; for EDV: end-diastolic volume / ESV: end-systolic volume / FS: fractional shortening of the inner diameter of the left ventricle / IVPWD / IVSTD: thickness of the end-diastolic interventricular septum / LVIDD: inner diameter of the end-diastolic left ventricle / LVIDS: inner diameter of the end-systolic left ventricle / LVPWS: thickness of the posterior wall of the end-systolic left ventricle / TVSTS: echocardiography, nucleotides co-injected with rOSF-2 plasmid
Procedure: HVJ-liposomes were prepared as described in Example 6 by adding 50 μl of HMG-1,-2 mixture (1 mg/ml, Wako Pure Chemical Industries) to 200 μg of the plasmid solution prepared in Example 6.1 and 1.4 mg of the antisense nucleotide solution selected in Example 7. Sense and scramble nucleotide sequences were also prepared in the same manner.
The HVJ-liposome/DNA solution was injected into the left ventricle of the heart (apical and lateral sites) of 13-weeks old Sprague-Dawley rats (male) in an amount of 100 μl each at 3 sites (a total volume of 300 μl) using a 30-gauge needle (rOSF-2/antisense group, rOSF-2/sense group and rOSF-2/scramble group). Similarly, pcDNA4/rOSF-2 was injected as a positive control group and pcDNA4/His-Myc vector was injected as a negative control group.
After anesthesia with ketamine (50 mg/ml) and xylazine (10 mg/ml) at 3 weeks post transfection, echocardiography was performed using Core Vision Pro SSA 350A (probe: 7 MHz, Toshiba).

[2] = system: OSF-2 promoter; test: Reporter assay using COS-1 cells with human OSF-2 reporter plasmid pGL3-hOSFgE (luciferase); assay type: cell-based; conditions: 24 hours after compound addition, pGL3-control (SV40 promoter) as control
Excerpt: A region extending from about 2 kb upstream of the initiation codon to immediately before the initiation codon was amplified by PCR using human OSF-2 gene #2 obtained in Example 10-1 as a template and primers (12) 5′-[…]-3′ (SEQ ID NO: 25) and (13) 5′-[…]-3′ (SEQ ID NO: 26). Primer (13) was designed to insert a restriction enzyme XhoI recognition site into the 5′ end, and this amplified fragment was digested with restriction enzymes SpeI and XhoI to give a fragment of about 2 kb, which was then ligated to a vector fragment of pGL3-enhancer (Promega) digested with restriction enzymes NheI and XhoI located upstream of the luciferase gene using a ligation kit (TAKARA SHUZO CO., LTD.) to give pGL3-hOSFgE. The nucleotide sequence of the insert was determined according to the method of Example 1-5 to confirm that it was identical with the nucleotide sequence determined in Example 10-1.
COS-1 cells were plated on a 96-well plate at a density of 3×10^4 cells/well and the plate was incubated at 37° C. for 16-24 hours and then transiently transfected with OSF-2 reporter plasmid pGL3-hOSFgE shown in Example 10 using LipofectAMINE 2000 reagent (GIBCO), and after incubation for 24 hours at 37° C., the medium was replaced. […] Luciferase activity was assayed according to the protocol of a luciferase assay system (Promega) and detected with 1420 multilabel counter (Wallac). […]

[3] = system: OSF-2 mRNA; test: Expression analysis of OSF-2 mRNA using MC3T3-E1 cells (real-time PCR); assay type: cell-based, murine; conditions: 30 μM, 24 hours
[4] = system: Dahl-S rats; test: Survival of Dahl-S heart failure model rats after antisense transfection into the heart; assay type: in vivo, rat; conditions: 30 weeks post transfection, Dahl-S rats on 8% salt diet
Procedure: HVJ-liposomes were prepared as described in Example 6.2 by adding 50 μl of HMG-1,-2 mixture (1 mg/ml, Wako Pure Chemical Industries) to 1.4 mg of a solution of the antisense nucleotides selected in Example 7 dissolved in BSS buffer. Sense nucleotides were also prepared in the same manner.
The HVJ-liposome/DNA solution was injected into the left ventricle of the heart (apical and lateral sites) of 13-weeks old Dahl-S rats (DIS/Eis, Eisai, male) raised on an 8% salt diet from the age of 8 weeks in an amount of 75 μl each at 4 sites (a total volume of 300 μl) using a 30-gauge needle (antisense group: 13 rats, sense group: 13 rats).

[5] = system: Myc-His-rOSF-2 fused protein; test: Selection of antisense nucleotide sequences: ELISA of Myc-His-rOSF-2 fused protein in transfected COS-1 cells; assay type: cell-based, rat
Excerpt: Five antisense nucleotide sequences shown as SEQ ID NOs: 12-16 were designed by selecting regions containing an initiation codon AUG but not containing three continuous guanines (triplet G) and incapable of forming a hairpin structure or self-annealing and synthesized by an outer contractor. All the antisense nucleotide sequences are phosphorothioate type.
The Myc-His-rOSF-2 fused protein expression vector pcDNA4/Myc-His/rOSF-2 described in Example 5 was introduced into COS-1 cells, and the antisense nucleotide sequences prepared in 1 above were introduced to screen antisense nucleotide sequences inhibiting the expression of Myc-His-rOSF 2 fused protein. The expression level of Myc-His-rOSF-2 fused protein was assayed by ELISA (Enzyme-Linked Immunosorbent Assay) using a Myc-specific monoclonal antibody (Invitrogen). Specifically, COS-1 cells were plated on a 96-well plate at a density of 2×10^4 cells/well. […]
The culture supernatant was immobilized to an EIA/RIA plate (Costar) by incubating 50 μl thereof at 37° C. for 1-2 hours, and washed twice with 200 μl of Dulbecco's phosphate-buffered saline containing 0.1% Tween (PBST). […] After incubation with 50 μl of TMB (3,3′,5,5′-tetramethylbenzidine) reagent (KPL) at room temperature for 30 minutes, the reaction was stopped by adding 50 μl of 0.1 N sulfuric acid and the absorbance at 450 nm was measured with a microplate reader. […]

Row | Compound | EDV: end-diastolic volume [1] [µL] | ESV: end-systolic volume [1] [µL] | FS: fractional shortening of the inner diameter of the left ventricle [1] [%] | IVPWD [1] [mm] | IVSTD: thickness of the end-diastolic interventricular septum [1] [mm] | LVIDD: inner diameter of the end-diastolic left ventricle [1] [mm] | LVIDS: inner diameter of the end-systolic left ventricle [1] [mm] | LVPWS: thickness of the posterior wall of the end-systolic left ventricle [1] [mm] | TVSTS [1] [mm] | luciferase activity [2] | expression of OSF-2 mRNA (standardized by GAPDH mRNA) [3] | survival rate [4] [%] | cardiac dilatation (LVIDD, LVIDS vs. positive control, sense and scramble groups) [1] | inhibitory activity against OSF-2 protein production ([5]; final concentration 10 nM, FIG. 3) | inhibitory activity against OSF-2 protein production ([5]; final concentration 100 nM, 3 days, FIG. 2)
1 | scramble: scramble nucleotide sequence with the 5′, 3′ direction reversed to SEQ ID NO: 12 (GTCCCGACTTCTACCAAGGA; listed as DNA, chemistry not given here) | 307.6 ± 10.4 | 73.4 ± 7.5 | 46.7 ± 1.6 | 1.68 ± 0.07 | 1.26 ± 0.12 | 7.60 ± 11 | 4.06 ± 0.18 | 2.66 ± 0.07 | 2.60 ± 0.15 | – | – | – | – | – | –
2 | Cc1ccccc1CNc1ncnc2c1ncn2[C@@H]1O[C@H](CO)[C@@H](O)[C@H]1O [Metrifudil, N-[(2-methylphenyl)methyl]-adenosine] | – | – | – | – | – | – | – | – | – | inhibit luciferase activity specifically to OSF-2 promoter | inhibited the expression of OSF-2 mRNA | – | – | – | –
3 | sense: sense nucleotide sequence that is a sense strand corresponding to SEQ ID NO: 12 (CAGGGCTGAAGATGGTTCCT; listed as DNA, chemistry not given here) | 339.2 ± 17.9 | 82.4 ± 10.2 | 46.7 ± 1.6 | 1.46 ± 0.11 | 1.26 ± 0.07 | 7.93 ± 0.18 | 4.24 ± 0.22 | 2.30 ± 0.15 | 2.50 ± 0.07 | – | – | 61.5 | – | – | –
4 | SEQ ID NO: 12: phosphorothioate antisense nucleotide sequence containing the initiation codon region of rat OSF-2; the one selected in Example 7 (AGGAACCATCTTCAGCCCTG; all phosphorothioate, sugars by position and methylation of C not given here) | 210.0 ± 6.8 | 43.3 ± 5.1 | 49.5 ± 1.7 | 2.20 ± 0.13 | 1.68 ± 0.12 | 6.42 ± 0.09 | 3.25 ± 0.15 | 2.80 ± 0.17 | 3.07 ± 0.16 | – | – | 100 | inhibited cardiac dilatation | stronger inhibitory activity against OSF-2 protein production than the sense and scramble nucleotide sequences | inhibited the expression the most strongly
5 | Nc1nc(Cl)nc2c1ncn2[C@@H]1O[C@H](COP(=O)([O-])OP(=O)([O-])OP(=O)([O-])[O-])[C@@H](O)[C@H]1O.[Na+].[Na+].[Na+].[Na+] [2-chloroadenosine 5′-triphosphate tetrasodium] | – | – | – | – | – | – | – | – | – | inhibit luciferase activity specifically to OSF-2 promoter | inhibited the expression of OSF-2 mRNA | – | – | – | –
